From patent US8865894B2, “Oxazolidin-2-one compounds and uses thereof” (Novartis AG, priority 2012, dated 2014)
pIC50: −log10 of the molar value.

These molecules were tested against T1, human PI3Kδ (Homo sapiens, UniProt O00329) (assay: Biochemical PI3Kdelta (TR-FRET Adapta Universal Kinase Assay)). Details: mean of n measurements, read-out: PIK3d/ IC50.
T1 construct: made in house
T1 sequence (O00329 2-1044 limits assumed): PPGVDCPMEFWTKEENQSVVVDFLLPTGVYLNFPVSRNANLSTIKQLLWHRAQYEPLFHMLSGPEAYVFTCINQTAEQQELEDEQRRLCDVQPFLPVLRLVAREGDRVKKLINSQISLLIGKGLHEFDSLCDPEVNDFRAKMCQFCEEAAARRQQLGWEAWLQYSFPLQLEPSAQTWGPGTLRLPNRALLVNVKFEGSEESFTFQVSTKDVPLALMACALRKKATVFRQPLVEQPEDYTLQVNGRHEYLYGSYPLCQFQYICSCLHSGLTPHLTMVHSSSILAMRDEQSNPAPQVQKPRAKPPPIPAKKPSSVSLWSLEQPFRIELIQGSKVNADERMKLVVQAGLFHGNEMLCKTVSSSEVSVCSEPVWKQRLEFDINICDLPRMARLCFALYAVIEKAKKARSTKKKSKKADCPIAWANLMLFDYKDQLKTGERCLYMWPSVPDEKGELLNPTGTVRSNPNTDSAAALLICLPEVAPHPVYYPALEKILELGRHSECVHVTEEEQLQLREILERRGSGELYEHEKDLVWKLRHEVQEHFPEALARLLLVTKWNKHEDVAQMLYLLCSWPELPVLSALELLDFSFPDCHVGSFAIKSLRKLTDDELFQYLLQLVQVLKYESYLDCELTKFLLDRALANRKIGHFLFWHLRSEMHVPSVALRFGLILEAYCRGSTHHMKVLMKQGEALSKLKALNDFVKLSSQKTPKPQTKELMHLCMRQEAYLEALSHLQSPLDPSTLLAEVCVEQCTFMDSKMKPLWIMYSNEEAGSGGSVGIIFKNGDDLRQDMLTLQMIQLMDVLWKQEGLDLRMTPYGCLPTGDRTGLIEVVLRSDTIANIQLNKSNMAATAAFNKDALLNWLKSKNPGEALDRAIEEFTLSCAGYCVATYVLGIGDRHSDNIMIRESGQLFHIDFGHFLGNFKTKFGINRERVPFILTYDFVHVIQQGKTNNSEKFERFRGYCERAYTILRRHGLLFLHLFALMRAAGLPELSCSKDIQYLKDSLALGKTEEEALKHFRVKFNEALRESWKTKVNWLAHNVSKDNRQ
Method: Test compounds were dissolved in DMSO (10 mM) and transferred into 1.4 mL flat bottom or V-shaped Matrix tubes carrying a unique 2D matrix chip by individual Novartis compound hubs. The numbers of these chips were distinctively linked to Novartis Pharma Numbers. The stock solutions were stored at −20° C. if not used immediately. For the test procedure the vials were defrosted and identified by a scanner whereby a working sheet was generated that guided the subsequent working steps.
Compounds were either manually diluted in DMSO for individual experiments (96 wells enabling 10 cpds at 8 (single points) concentrations) as described in or prepared as described below if tested for profiling in 384-wells. This format enabled the assay of maximally 40 individual test compounds at 8 concentrations (single points) including 4 reference compounds. The dilution protocol included the production of “pre-dilution plates”, “master plates” and “assay plates”.
96 polypropylene well plates were used as pre-dilution plates. A total of 4 pre-dilution plates were prepared including 10 test compounds each on the plate positions A1-A10, one standard compound at A11 and one DMSO control at A12. Programs have been written to run these pipetting steps on the HamiltonSTAR robots.
Identical “assay plates” were then prepared by pipetting 50 nL each of compound dilutions of the “master plates” into 384-well “assay plates”. The compounds were mixed with 4.5 μL of assays components plus 4.5 μL enzyme corresponding to a 1:181 dilution enabling the final concentration of 10, 3.0, 1.0, 0.3, 0.1, 0.03, 0.01 and 0.003 μM, respectively. The preparation of the “master plates” was handled by the Matrix PlateMate Plus robot and replication of “assay plates” by the HummingBird robot.
Catalytically active human PI3Kα, PI3Kβ, PI3Kδ, and mTOR were cloned, expressed and purified as described (Maira S M, Stauffer F, Brueggen J, Furet P, Schnell C, Fritsch C, Brachmann S, Chène P, de Pover A, Schoemaker K, Fabbro D, Gabriel D, Simonen M, Murphy L, Finan P, Sellers W, García-Echeverría C (2008), Mol Cancer Ther. 7:1851-63 and Maira S M, Pecchi S, Brueggen J, Huh K, Schnell C, Fritsch C, Nagel T, Wiesmann M, Brachmann S, Dorsch M, Chène P, Schoemaker K, De Pover A, Menezes D, Fabbro D, Sellers W, García-Echeverría C, Voliva C F (2011), Mol. Cancer Ther. accepted).
The TR-FRET Adapta™ Universal Kinase Assay Kit was purchased from Invitrogen Corporation (Carlsbad/CA, USA) (Cat. No. PV5099). The kit contains the following reagents: Adapta Eu-anti-ADP Antibody (Europium labeled anti-ADP antibody in HEPES buffered saline, Cat. No. PV5097), Alexa Fluor® 647-labeled ADP tracer (Alexa Fluor® 647-labeled ADP tracer in HEPES buffered saline, Cat. No. PV5098), proprietary TR-FRET dilution buffer pH 7.5 (Cat. No. PV3574).
PIK3CD substrate Phosphatidylinositol was obtained from Invitrogen (vesicules consisting of 2 mM PI in 50 mM HEPES pH7.5; Cat. No. PV5371). PIK3CG substrate Phosphatidylinositol-4,5-bisphosphate (PIP(4,5)2 was obtained from Invitrogen (PIP2:PS large unilamellar vesicules consisting of 1 mM PIP2: 19 mM PS in 50 mM HEPES pH7.5, 3 mM MgCl2, 1 mM EGTA; Cat. No. PV5100).
Time-Resolved Fluorescence Resonance Energy Transfer (TR-FRET) is a technology based on energy transfer between two adjacent dyes, from an excited electron in one dye (the donor) to an electron of an adjacent dye (the acceptor) through resonance, then released as a photon. This energy transfer is detected by an increase in the fluorescence emission of the acceptor, and a decrease in the fluorescence emission of the donor. TR-FRET assays for protein kinases use a long-lifetime lanthanide Terbium or Europium chelates as the donor species which overcome interference from compound autofluorescence or light scatter from precipitated compounds, by introducing a delay after excitation by a flashlamp excitation source. Results are often expressed as a ratio of the intensities of the acceptor and donor fluorophores.

Row | pIC50 | SMILES
1 | 7.77 | Nc1ncc(-c2cc(N3C[C@@H](CO)OC3=O)nc(N3CCOCC3)n2)c(C(F)(F)F)n1 [Example 14, (S)-3-(2′-Amino-2-morpholin-4-yl-4′-trifluoromethyl-[4,5′]bipyrimidinyl-6-yl)-5-hydroxymethyl-oxazolidin-2-one]
2 | 8.05 | C[C@H]1[C@@H](CCO)OC(=O)N1c1cc(-c2cnc(N)nc2C(F)(F)F)nc(N2CCOCC2)n1 [Example 23, (4S,5R)-3-(2′-Amino-2-morpholino-4′-(trifluoromethyl)-[4,5′-bipyrimidin]-6-yl)-5-(2-hydroxyethyl)-4-methyloxazolidin-2-one]
3 | 8.40 | COC[C@H]1COC(=O)N1c1cc(-c2cnc(N)nc2C(F)(F)F)nc(N2CCOCC2)n1 [Example 5, (S)-3-(2′-Amino-2-morpholin-4-yl-4′-trifluoromethyl-[4,5′]bipyrimidinyl-6-yl)-4-methoxymethyl-oxazolidin-2-one]
4 | 7.68 | C[C@H]1COCCN1c1nc(-c2cnc(N)nc2C(F)(F)F)cc(N2C(=O)OC[C@@H]2C)n1 [Example 13, (S)-3-[2′-Amino-2-((S)-3-methyl-morpholin-4-yl)-4′-trifluoromethyl-[4,5′]bipyrimidinyl-6-yl]-4-methyl-oxazolidin-2-one]
5 | 8.40 | Nc1ncc(-c2cc(N3C(=O)OC4C(O)CCC43)nc(N3CCOCC3)n2)c(C(F)(F)F)n1 (single isomer, unassigned) [Example 22A]
6 | 7.92 | C[C@H]1C(CC(C)(C)O)OC(=O)N1c1cc(-c2cnc(N)nc2C(F)(F)F)nc(N2CCOCC2)n1 (mixture of isomers) [Example 26, (4S,5R)- and (4S,5S)-3-(2′-amino-2-morpholino-4′-(trifluoromethyl)-[4,5′-bipyrimidin]-6-yl)-5-(2-hydroxy-2-methylpropyl)-4-methyloxazolidin-2-one]
7 | 8.10 | C[C@H]1OC(=O)N(c2cc(-c3cnc(N)nc3C(F)(F)F)nc(N3CCOCC3)n2)[C@H]1CO [Example 18, (4S,5R)-3-(2′-Amino-2-morpholin-4-yl-4′-trifluoromethyl-[4,5′]bipyrimidinyl-6-yl)-4-hydroxymethyl-5-methyl-oxazolidin-2-one]
8 | 7.68 | [2H]C1([2H])OC([2H])([2H])C([2H])([2H])N(c2nc(-c3cnc(N)nc3C(F)(F)F)cc(N3C(=O)O[C@H](C)[C@@H]3CO)n2)C1([2H])[2H] [Example 8]
9 | 7.96 | C[C@@H]1OC(=O)N(c2cc(-c3cnc(N)nc3C(F)(F)F)nc(N3CCOCC3)n2)[C@H]1CO [Example 6]
10 | 7.12 | CC1(C)OC(=O)N(c2cc(-c3cnc(N)nc3C(F)(F)F)nc(N3CCOCC3)n2)[C@H]1CO [Example 2, (S)-3-(2′-Amino-2-morpholin-4-yl-4′-trifluoromethyl-[4,5′]bipyrimidinyl-6-yl)-4-hydroxymethyl-5,5-dimethyl-oxazolidin-2-one]
11 | 8.15 | C[C@H](O)CC1OC(=O)N(c2cc(-c3cnc(N)nc3C(F)(F)F)nc(N3CCOCC3)n2)[C@H]1C (single isomer, unassigned) [Example 25]
12 | 8.40 | Nc1ncc(-c2cc(N3C(=O)O[C@H]4CCCC[C@@H]43)nc(N3CCOCC3)n2)c(C(F)(F)F)n1 [Example 4, (3aS,7aS)-3-(2′-Amino-2-morpholin-4-yl-4′-trifluoromethyl-[4,5′]bipyrimidinyl-6-yl)-hexahydro-benzooxazol-2-one]
13 | 8.05 | C[C@@H](O)C[C@H]1OC(=O)N(c2cc(-c3cnc(N)nc3C(F)(F)F)nc(N3CCOCC3)n2)[C@H]1C (single isomer, unassigned) [Example 24]
14 | 8.30 | Nc1ncc(-c2cc(N3C(=O)OC4C(O)CCC43)nc(N3CCOCC3)n2)c(C(F)(F)F)n1 (single isomer, unassigned) [Example 22B]
15 | 7.54 | Nc1ncc(-c2cc(N3CCOC3=O)nc(N3CCOCC3)n2)c(C(F)(F)F)n1 [Example 11, 3-(2′-Amino-2-morpholin-4-yl-4′-trifluoromethyl-[4,5′]bipyrimidinyl-6-yl)-oxazolidin-2-one, reference compound]
16 | 7.49 | Nc1ncc(-c2cc(N3C(=O)OC[C@@H]3CCO)nc(N3CCOCC3)n2)c(C(F)(F)F)n1 [Example 9, (S)-3-(2′-Amino-2-morpholin-4-yl-4′-trifluoromethyl-[4,5′]bipyrimidinyl-6-yl)-4-(2-hydroxy-ethyl)-oxazolidin-2-one]
17 | 8.15 | C[C@H]1COC(=O)N1c1cc(-c2cnc(N)nc2C(F)(F)F)nc(N2CCOCC2)n1 [Example 1, (S)-3-(2′-Amino-2-morpholin-4-yl-4′-trifluoromethyl-[4,5′]bipyrimidinyl-6-yl)-4-methyl-oxazolidin-2-one]
18 | 7.68 | C[C@H]1CN(c2cc(-c3cnc(N)nc3C(F)(F)F)nc(N3CCOCC3)n2)C(=O)O1 [Example 16, (S)-3-(2′-Amino-2-morpholin-4-yl-4′-trifluoromethyl-[4,5′]bipyrimidinyl-6-yl)-5-methyl-oxazolidin-2-one]
19 | 7.92 | CC1(CO)COC(=O)N1c1cc(-c2cnc(N)nc2C(F)(F)F)nc(N2CCOCC2)n1 (racemic) [Example 3, 3-(2′-amino-2-morpholino-4′-(trifluoromethyl)-4,5′-bipyrimidin-6-yl)-4-(hydroxymethyl)-4-methyloxazolidin-2-one]
20 | 8.22 | Nc1ncc(-c2cc(N3C(=O)O[C@@H]4[C@@H](O)CC[C@@H]43)nc(N3CCOCC3)n2)c(C(F)(F)F)n1 (racemic) [Example 22, (3aR*,6R*,6aR*)-3-(2′-Amino-2-morpholino-4′-(trifluoromethyl)-[4,5′-bipyrimidin]-6-yl)-6-hydroxyhexahydro-2H-cyclopenta[d]oxazol-2-one]
21 | 7.23 | C[C@H]1OC(=O)N(c2cc(-c3cnc(N)nc3C(F)(F)F)nc(N3CCOCC3)n2)[C@H]1COC=O [Example 12, Formic acid (4S,5R)-3-(2′-amino-2-morpholin-4-yl-4′-trifluoromethyl-[4,5′]bipyrimidinyl-6-yl)-5-methyl-2-oxo-oxazolidin-4-ylmethyl ester]
